Literature values, collected in patent publication US20220133758A1, “TREATMENT OF INFLAMMATORY BOWEL DISEASES WITH 2'-FUCOSYLLACTOSE COMPOUNDS” (CHILDREN'S HOSPITAL MEDICAL CENTER, priority 2017, published 2022).

Key:
[1] = infliximab or adalimumab anti-TNF therapy, despite optimal therapeutic drug monitoring and dosing
[2] = system: EC genes regulating butyrate transport, signaling, and mitochondrial oxidation; details: IBD patients who experience mucosal healing

| Substance | patients relapsed [1] | inflammatory suppression of EC genes regulating butyrate transport, signaling, and mitochondrial oxidation [2] | Bifidobacterium abundance (fecal Bifidobacterium; pediatric CD study) | correction of dysbiosis (fecal Bifidobacterium; suppression of mucosal inflammation) |
| --- | --- | --- | --- | --- |
| adalimumab | 37% |  |  |  |
| infliximab: monoclonal anti-TNF antibody | 37% | largely corrected | not associated with increased Bifidobacterium abundance | only partially corrects |
